Like-named read-outs stand apart in the source and are kept apart here.
Experiment: Phase 1 clinical trial: plasma pharmacokinetics
Assay type: in vivo, human
Settings: for Tmax / half-life / Cmax / AUC / AUC(0-t): human, plasma, oral; for half-life: read-out: Effective T1/2 (converted); for AUC: tau = 24 hours
Procedure: Summary statistics based on preliminary data were obtained for the pharmacokinetics of Compound 1 in patients receiving once-daily doses ranging from 20 mg to 240 mg (Table 5). The mean plasma concentration-time curves of Compound 1 in the once-daily dose groups ranging from 20 mg to 240 mg are shown in Figure 11. In this study, one cycle consists of 28 days, and Cycle 1 Day 1 refers to Day 1 of the first cycle. […] Accumulation was observed after repeated administration. […] Based on these accumulation ratios, the half-life of Compound 1 was estimated to be approximately 4 days. Based on the currently available data, plasma concentrations are considered to have reached steady state by Day 15.
Summary statistics based on preliminary data were obtained for the pharmacokinetics of Compound 1 in patients in the 20 mg QD, 40 mg QD, 80 mg QD, 120 mg QD, 180 mg QD, 240 mg QD, 360 mg QD, and 480 mg daily (240 mg BID) dose groups (Table 6). The mean plasma concentration-time curves of Compound 1 in the 20 mg QD to 480 mg daily (240 mg BID) dose groups are shown in Figure 12 (in Figure 12, Compound 1 is denoted as "DSP-0390"). In this study, one cycle consists of 28 days, and Cycle 1 Day 1 refers to Day 1 of the first cycle. […] The median Tmax ranged from 2 to 8 hours. Accumulation was observed after repeated administration, and assuming linearity based on the observed accumulation ratios, the estimated elimination half-life was considered to be on the order of several days (approximately 1 to 6 days) (data cut-off: March 2024).

[1] = 480 mg (240 mg BID), cut-off March 2024

Structure (SMILES): CC1(C)Oc2cc(Cl)ccc2[C@@H]2OCC3(CCN(CCn4ccnc4)CC3)C[C@H]21 [Compound 1, (4'aR,10'bR)-8'-chloro-1-[2-(1H-imidazol-1-yl)ethyl]-5',5'-dimethyl-4'a,10'b-dihydro-2'H,4'H,5'H-spiro[piperidine-4,3'-pyrano[3,2-c][1]benzopyran] diphosphate]
- AR AUC (accumulation ratio) (20 mg QD, cut-off March 2024): 7.31
- AR Cmax (accumulation ratio) (20 mg QD, cut-off March 2024): 6.52
- AR AUC (mean accumulation ratio) (20 mg, QD, cut-off April 2023): 7.4
- AR Cmax (mean accumulation ratio) (20 mg, QD, cut-off April 2023): 6.1
- AR AUC (accumulation ratio) (40 mg QD, cut-off March 2024): 8.93
- AR Cmax (accumulation ratio) (40 mg QD, cut-off March 2024): 6.04
- AR AUC (mean accumulation ratio) (40 mg, QD, cut-off April 2023): 8.6
- AR Cmax (mean accumulation ratio) (40 mg, QD, cut-off April 2023): 6.2
- AR AUC (accumulation ratio) (80 mg QD, cut-off March 2024): 4.47
- AR Cmax (accumulation ratio) (80 mg QD, cut-off March 2024): 3.70
- AR AUC (mean accumulation ratio) (80 mg, QD, cut-off April 2023): 6.9
- AR Cmax (mean accumulation ratio) (80 mg, QD, cut-off April 2023): 5.8
- AR AUC (accumulation ratio) (120 mg QD, cut-off March 2024): 4.52
- AR Cmax (accumulation ratio) (120 mg QD, cut-off March 2024): 3.53
- AR AUC (mean accumulation ratio) (120 mg, QD, cut-off April 2023): 5.3
- AR Cmax (mean accumulation ratio) (120 mg, QD, cut-off April 2023): 4.6
- AR AUC (accumulation ratio) (180 mg QD, cut-off March 2024): 3.55
- AR Cmax (accumulation ratio) (180 mg QD, cut-off March 2024): 1.89
- AR AUC (mean accumulation ratio) (180 mg, QD, N=1, cut-off April 2023): 3.9
- AR Cmax (mean accumulation ratio) (180 mg, QD, cut-off April 2023): 2
- AR AUC (accumulation ratio) (240 mg QD, cut-off March 2024): 3.29
- AR Cmax (accumulation ratio) (240 mg QD, cut-off March 2024): 1.79
- AR AUC (mean accumulation ratio) (240 mg, QD, N=1, cut-off April 2023): 3.9
- AR Cmax (mean accumulation ratio) (240 mg, QD, cut-off April 2023): 2.6
- AR AUC (accumulation ratio) (360 mg QD, cut-off March 2024): 2.07
- AR Cmax (accumulation ratio) (360 mg QD, cut-off March 2024): 1.36
- AR AUC (accumulation ratio) [1]: 1.61
- AR Cmax (accumulation ratio) [1]: 2.42
- half-life estimated from accumulation ratios (cut-off April 2023): approximately 4 days
- Tmax (20 mg QD to 480 mg daily (240 mg BID), cut-off March 2024, read-out: median Tmax, range over dose groups): 2 to 8 h
- half-life (20 mg, 20 mg QD, cut-off March 2024): 113 h
- Cmax (20 mg, Cycle 1, Day 1, 20 mg QD, cut-off March 2024, read-out: Cmax): 4.28 ng/mL
- Tmax (20 mg, Cycle 1, Day 1, 20 mg QD, cut-off March 2024, read-out: Tmax [a] median value): 6 h
- AUC (20 mg, Cycle 1, Day 1, 20 mg QD, cut-off March 2024, read-out: AUCtau [b]): 76.6 ng·h/mL
- AUC(0-t) (20 mg, Cycle 1 Day 1, 20 mg, QD, cut-off April 2023, read-out: AUC0-24 (geometric mean)): 76 ng·h/mL
- AUC(0-t) (20 mg, Cycle 1 Day 1, 20 mg, QD, cut-off April 2023, read-out: AUC0-24 (mean)): 77 ng·h/mL
- AUC(0-t) (20 mg, Cycle 1 Day 1, 20 mg, QD, cut-off April 2023, read-out: AUC0-24 (median)): 77 ng·h/mL
- Cmax (20 mg, Cycle 1 Day 1, 20 mg, QD, cut-off April 2023, read-out: Cmax (geometric mean)): 4 ng/mL
- Cmax (20 mg, Cycle 1 Day 1, 20 mg, QD, cut-off April 2023, read-out: Cmax (mean)): 4 ng/mL
- Cmax (20 mg, Cycle 1 Day 1, 20 mg, QD, cut-off April 2023, read-out: Cmax (median)): 4 ng/mL
- Tmax (20 mg, Cycle 1 Day 1, 20 mg, QD, cut-off April 2023, read-out: Tmax (mean)): 6 h
- Tmax (20 mg, Cycle 1 Day 1, 20 mg, QD, cut-off April 2023, read-out: Tmax (median)): 6 h
- Cmax (20 mg, Cycle 2, Day 1, 20 mg QD, cut-off March 2024, read-out: Cmax,ss): 27.9 ng/mL
- Tmax (20 mg, Cycle 2, Day 1, 20 mg QD, cut-off March 2024, read-out: Tmax,ss [a] median value): 7 h
- AUC (20 mg, Cycle 2, Day 1, 20 mg QD, cut-off March 2024, read-out: AUCtau,ss [b]): 560 ng·h/mL
- AUC(0-t) (20 mg, Cycle 2 Day 1, 20 mg, QD, cut-off April 2023, read-out: AUC0-24 (geometric mean)): 557 ng·h/mL
- AUC(0-t) (20 mg, Cycle 2 Day 1, 20 mg, QD, cut-off April 2023, read-out: AUC0-24 (mean)): 561 ng·h/mL
- AUC(0-t) (20 mg, Cycle 2 Day 1, 20 mg, QD, cut-off April 2023, read-out: AUC0-24 (median)): 561 ng·h/mL
- Cmax (20 mg, Cycle 2 Day 1, 20 mg, QD, cut-off April 2023, read-out: Cmax (geometric mean)): 28 ng/mL
- Cmax (20 mg, Cycle 2 Day 1, 20 mg, QD, cut-off April 2023, read-out: Cmax (mean)): 28 ng/mL
- Cmax (20 mg, Cycle 2 Day 1, 20 mg, QD, cut-off April 2023, read-out: Cmax (median)): 28 ng/mL
- Tmax (20 mg, Cycle 2 Day 1, 20 mg, QD, cut-off April 2023, read-out: Tmax (mean)): 7 h
- Tmax (20 mg, Cycle 2 Day 1, 20 mg, QD, cut-off April 2023, read-out: Tmax (median)): 7 h
- half-life (40 mg, 40 mg QD, cut-off March 2024): 139 h
- Cmax (40 mg, Cycle 1, Day 1, 40 mg QD, cut-off March 2024, read-out: Cmax): 9.87 ng/mL
- Tmax (40 mg, Cycle 1, Day 1, 40 mg QD, cut-off March 2024, read-out: Tmax [a] median value): 8 h
- AUC (40 mg, Cycle 1, Day 1, 40 mg QD, cut-off March 2024, read-out: AUCtau [b]): 131 ng·h/mL
- AUC(0-t) (40 mg, Cycle 1 Day 1, 40 mg, QD, cut-off April 2023, read-out: AUC0-24 (geometric mean)): 123 ng·h/mL
- AUC(0-t) (40 mg, Cycle 1 Day 1, 40 mg, QD, cut-off April 2023, read-out: AUC0-24 (mean)): 132 ng·h/mL
- AUC(0-t) (40 mg, Cycle 1 Day 1, 40 mg, QD, cut-off April 2023, read-out: AUC0-24 (median)): 107 ng·h/mL
- Cmax (40 mg, Cycle 1 Day 1, 40 mg, QD, cut-off April 2023, read-out: Cmax (geometric mean)): 8 ng/mL
- Cmax (40 mg, Cycle 1 Day 1, 40 mg, QD, cut-off April 2023, read-out: Cmax (mean)): 10 ng/mL
- Cmax (40 mg, Cycle 1 Day 1, 40 mg, QD, cut-off April 2023, read-out: Cmax (median)): 7 ng/mL
- Tmax (40 mg, Cycle 1 Day 1, 40 mg, QD, cut-off April 2023, read-out: Tmax (mean)): 11 h
- Tmax (40 mg, Cycle 1 Day 1, 40 mg, QD, cut-off April 2023, read-out: Tmax (median)): 8 h
- Cmax (40 mg, Cycle 2, Day 1, 40 mg QD, cut-off March 2024, read-out: Cmax,ss): 59.6 ng/mL
- Tmax (40 mg, Cycle 2, Day 1, 40 mg QD, cut-off March 2024, read-out: Tmax,ss [a] median value): 4 h
- AUC (40 mg, Cycle 2, Day 1, 40 mg QD, cut-off March 2024, read-out: AUCtau,ss [b]): 1170 ng·h/mL
- AUC(0-t) (40 mg, Cycle 2 Day 1, 40 mg, QD, cut-off April 2023, read-out: AUC0-24 (geometric mean)): 1110 ng·h/mL
- AUC(0-t) (40 mg, Cycle 2 Day 1, 40 mg, QD, cut-off April 2023, read-out: AUC0-24 (mean)): 1180 ng·h/mL
- AUC(0-t) (40 mg, Cycle 2 Day 1, 40 mg, QD, cut-off April 2023, read-out: AUC0-24 (median)): 1370 ng·h/mL
- Cmax (40 mg, Cycle 2 Day 1, 40 mg, QD, cut-off April 2023, read-out: Cmax (geometric mean)): 56 ng/mL
- Cmax (40 mg, Cycle 2 Day 1, 40 mg, QD, cut-off April 2023, read-out: Cmax (mean)): 60 ng/mL
- Cmax (40 mg, Cycle 2 Day 1, 40 mg, QD, cut-off April 2023, read-out: Cmax (median)): 72 ng/mL
- Tmax (40 mg, Cycle 2 Day 1, 40 mg, QD, cut-off April 2023, read-out: Tmax (mean)): 5 h
- Tmax (40 mg, Cycle 2 Day 1, 40 mg, QD, cut-off April 2023, read-out: Tmax (median)): 4 h
- half-life (80 mg, 80 mg QD, cut-off March 2024): 64.8 h
- Cmax (80 mg, Cycle 1, Day 1, 80 mg QD, cut-off March 2024, read-out: Cmax): 17.1 ng/mL
- Tmax (80 mg, Cycle 1, Day 1, 80 mg QD, cut-off March 2024, read-out: Tmax [a] median value): 8 h
- AUC (80 mg, Cycle 1, Day 1, 80 mg QD, cut-off March 2024, read-out: AUCtau [b]): 264 ng·h/mL
- AUC(0-t) (80 mg, Cycle 1 Day 1, 80 mg, QD, cut-off April 2023, read-out: AUC0-24 (geometric mean)): 203 ng·h/mL
- AUC(0-t) (80 mg, Cycle 1 Day 1, 80 mg, QD, cut-off April 2023, read-out: AUC0-24 (mean)): 268 ng·h/mL
- AUC(0-t) (80 mg, Cycle 1 Day 1, 80 mg, QD, cut-off April 2023, read-out: AUC0-24 (median)): 205 ng·h/mL
- Cmax (80 mg, Cycle 1 Day 1, 80 mg, QD, cut-off April 2023, read-out: Cmax (geometric mean)): 13 ng/mL
- Cmax (80 mg, Cycle 1 Day 1, 80 mg, QD, cut-off April 2023, read-out: Cmax (mean)): 17 ng/mL
- Cmax (80 mg, Cycle 1 Day 1, 80 mg, QD, cut-off April 2023, read-out: Cmax (median)): 15 ng/mL
- Tmax (80 mg, Cycle 1 Day 1, 80 mg, QD, cut-off April 2023, read-out: Tmax (mean)): 8 h
- Tmax (80 mg, Cycle 1 Day 1, 80 mg, QD, cut-off April 2023, read-out: Tmax (median)): 8 h
- Cmax (80 mg, Cycle 2, Day 1, 80 mg QD, cut-off March 2024, read-out: Cmax,ss): 63.2 ng/mL
- Tmax (80 mg, Cycle 2, Day 1, 80 mg QD, cut-off March 2024, read-out: Tmax,ss [a] median value): 8 h
- AUC (80 mg, Cycle 2, Day 1, 80 mg QD, cut-off March 2024, read-out: AUCtau,ss [b]): 1180 ng·h/mL
- AUC(0-t) (80 mg, Cycle 2 Day 1, 80 mg, QD, cut-off April 2023, read-out: AUC0-24 (geometric mean)): 1100 ng·h/mL
- AUC(0-t) (80 mg, Cycle 2 Day 1, 80 mg, QD, cut-off April 2023, read-out: AUC0-24 (mean)): 1190 ng·h/mL
- AUC(0-t) (80 mg, Cycle 2 Day 1, 80 mg, QD, cut-off April 2023, read-out: AUC0-24 (median)): 1110 ng·h/mL
- Cmax (80 mg, Cycle 2 Day 1, 80 mg, QD, cut-off April 2023, read-out: Cmax (geometric mean)): 58 ng/mL
- Cmax (80 mg, Cycle 2 Day 1, 80 mg, QD, cut-off April 2023, read-out: Cmax (mean)): 63 ng/mL
